Experimental data: US20040186022A1, “Enhanced herbicides” (priority 1999, published 2004)
Where “and” joins values, the source holds several entries; their conditions need not be identical. Equal values may be shown once.

Legend:
young potato plants = experiment: Effects of desiccants and desiccant combinations with other compounds on young potato plants; type: in vivo; parameters: All evaluations (total score): scale not given here
Text: (§1) The herbicides were applied in the “spray to drip” amount or at a calibrated 20-60 gallons/acre. “Spray to drip” is an uncalibrated application of fluid to foliage, where sufficient spray volume is used to sufficiently saturate the foliage surface until excess fluid begins to drip from the foliage.

[1] = system: snapbean and potato plants; experiment: Enhancement of Scythe's herbicidal activity by selected compounds; type: in vivo; parameters: Totals, all evaluations, Beans / Totals, all evaluations, Potatoes / Totals, all evaluations, All / evaluation, 2 days, beans / evaluation, 2 days, potatoes / evaluation, 11 days, beans / evaluation, 11 days, potatoes / evaluation, 15 days, beans / evaluation, 15 days, potatoes: scale not given here
Text: as §1

[2] = system: black beans (dry bean variety T39); experiment: Synergistic interactions of succinic acid and di-ammonium succinate with other herbicidal compounds, dry beans (black); type: in vivo; conditions: for Injury rating, average per plot: scale 1-5
Text: as §1

[3] = system: navy dry beans (navy Vista); experiment: Synergistic interactions of succinic acid and di-ammonium succinate with herbicidal compounds, navy dry beans; type: in vivo, dry bean (navy); conditions: for Injury rating, average per plot: scale 1-5
Text: as §1

[4] = system: 60 G/a: velvetleaf, black nightshade, redroot pigweed, foxtail and snapbeans; spray to drip: black nightshade, velvetleaf, foxtail and snapbeans; experiment: Efficacy of 1.5% succinic acid with oleic, caprylic or pelargonic acid in an emulsification system (Emsorb 6900); type: in vivo; parameters: Injury rating, total score for 2 evaluation, Spray to drip / Injury rating, total score for 2 evaluation, Total Rating: scale not given here
Text: as §1

plants = experiment: Herbicidal activity: comparison of caprylic, pelargonic and an equimolar mixture of caprylic and pelargonic acids; type: in vivo; conditions: for Injury ratings based on 2 independent evaluations, 40 G/acre: 40 G/acre: chickweed, lambsquarter and green foxtail; for Injury ratings based on 2 independent evaluations, 40 G/acre / Injury ratings based on 2 independent evaluations, 60 G/acre: redroot pigweed, each pot rated 1 to 5; for Injury ratings based on 2 independent evaluations, 60 G/acre: 60 G/acre: chickweed, lambsquarter, green foxtail, crabgrass and wheat; for Average rating per pot: rating 1 to 5, 5 = complete desiccation of all plants
Text: The herbicides were applied in the “spray to drip” amount or at a calibrated 20-60 gallons/acre. “Spray to drip” is an uncalibrated application of fluid to foliage, where sufficient spray volume is used to sufficiently saturate the foliage surface until excess fluid begins to drip from the foliage. In general, about 5 to 200 gallons/acre, preferably 20-100 gallons/acre can be effective.

soybeans [5] = experiment: Synergistic relationships between succinic acid and caprylic acid at different application rates, testing soybeans; type: in vivo; conditions: 2 days after a single foliar application, average of 2 sites, soybean Stine 2250; for Overall Effect: 5 equals profound desiccation
Text: as §1

soybeans [6] = experiment: Synergy comparisons of various organic acids with caprylic acid, testing soybeans; type: in vivo; conditions: 3 days after a single foliar application, average of 2 sites, soybean Stine 2250; for Overall Effect: 5 equals profound desiccation
Text: as §1

Dry Beans = experiment: Synergistic relationship between succinic or citric acid and caprylic acid, testing dry beans; type: in vivo; conditions: 3 days after single foliar application, dry bean Vista; for Green Foliage, Overall Effect / Yellow Foliage, Overall Effect: 5 equals profound desiccation
Text: as §1

[7] = Measurement of pH values for test desiccants (Example 55); type: physicochemical
[8] = system: chickweed, redtop, velvetleaf, crabgrass and green foxtail; experiment: Enhancement of herbicidal activity of caprylic/capric acids (c/c) using selected compounds at equimolar amounts; type: in vivo; parameters: Relative injury ratings, Day #4 / Relative injury ratings, Day #5: scale not given here; conditions: for Relative injury ratings, Day #2: Day 2 after treatment, 40 G/acre, 8 pots, rating 1-5 per pot, […] Emsorb 6900, […] mineral oil; for Relative injury ratings, Day #4: Day 4 after treatment; for Relative injury ratings, Day #5: Day 5 after treatment; for Average rating per pot: scale 1-5
Text: as §1

[9] = Day 2, one application at 40 G/acre, treatments 1-4, 9-11 in Emsorb 6900/mineral oil/Hasten, 5-8, 12-14 in 0.3% Sylgard 309
[10] = Day 1, one application at 40 G/acre, treatments 1-4, 9-11 in Emsorb 6900/mineral oil/Hasten, 5-8, 12-14 in 0.3% Sylgard 309

CCCCCCCC(=O)O [1% caprylic]
Injury ratings of treated plants, day 1 (young potato plants; 1 day after application, 6 = complete desiccation): 2
Injury ratings of treated plants, day 3 (young potato plants; 3 days after application, 6 = complete desiccation): 3
Injury ratings of treated plants, day 6 (young potato plants; 6 days after application, 6 = complete desiccation): 2
Injury ratings of treated plants, day 17 (young potato plants; 17 days after application, 6 = complete desiccation): 2.5
Injury ratings of treated plants, day 22 (young potato plants; 22 days after application, 6 = complete desiccation): 3
Injury ratings of treated plants, day 27 (young potato plants; 27 days after application, 6 = complete desiccation): 3
Injury ratings of treated plants, […] (young potato plants; […] after application, 6 = complete desiccation): 2
All evaluations (total score) (young potato plants; total of all evaluation times): 17.5

O=C([O-])c1ccccc1O.[Na+] [2% NaSalicylate]
Totals, all evaluations, All ([1]; beans + potatoes): 7.5
evaluation, 2 days, potatoes ([1]; potato, 2 days after application, 40 gallons/acre): 1
evaluation, 11 days, potatoes ([1]; potato, 11 days after application, 40 gallons/acre): 1
evaluation, 15 days, potatoes ([1]; potato, 15 days after application, 40 gallons/acre): 1
evaluation, […], potatoes ([1]; potato, […] after application, 40 gallons/acre, 6 = complete desiccation): 0
Totals, all evaluations, Potatoes ([1]; potato, total of 4 evaluation times): 3
evaluation, 2 days, beans ([1]; snapbean, 2 days after application, 40 gallons/acre): 1
evaluation, 11 days, beans ([1]; snapbean, 11 days after application, 40 gallons/acre): 1.5
evaluation, 15 days, beans ([1]; snapbean, 15 days after application, 40 gallons/acre): 1
evaluation, […], beans ([1]; snapbean, […] after application, 40 gallons/acre, 6 = complete desiccation): 1
Totals, all evaluations, Beans ([1]; snapbean, total of 4 evaluation times): 4.5

N.N.O=C(O)CCC(=O)O [2.52% di-ammonium succinate, di-ammonium succinate]
Injury rating, average per plot [2, 9]: 0
% desiccation (Day 12), foliage [2]: 0%
% desiccation (Day 12), pods [2]: 0%
% desiccation (Day 12), vines [2]: 0%
Injury rating, average per plot ([2]; Day 12): 0
Injury rating, average per plot [3, 10]: 0
Injury rating, average per plot ([3]; Day 2): 0
Injury rating, average per plot ([3]; Day 3): 0
Injury rating, average per plot ([3]; Day 4): 0
% desiccation (Day 12), foliage [3]: 0%
% desiccation (Day 12), pods [3]: 0%
% desiccation (Day 12), vines [3]: 0%
Injury rating, average per plot ([3]; Day 12): 0

CCCCCCCC/C=C\CCCCCCCC(=O)O [3% oleic, oleic acid]
Injury rating, total score for 2 evaluation, Total Rating ([4]; 60 G/a plus spray to drip): 33.6
Injury rating, total score for 2 evaluation, 60 G/a ([4]; 60 G/a, rating 1-5 per pot, 1% Emsorb, 0.3% Hasten): 24.2
Average rating per pot ([4]; scale 1-5): 1.2
Injury rating, total score for 2 evaluation, Spray to drip ([4]; spray to drip): 9.4

O=C([O-])c1ccccc1O.[Na+] [3% sodium salicylate, sodium salicylate]
Injury rating, average per plot [2, 9]: 4
% desiccation (Day 12), foliage [2]: 95%
% desiccation (Day 12), pods [2]: 90%
% desiccation (Day 12), vines [2]: 90%
Injury rating, average per plot ([2]; Day 12): 4.78
Injury rating, average per plot [3, 10]: 3.8
Injury rating, average per plot ([3]; Day 2): 4.13
Injury rating, average per plot ([3]; Day 3): 4.57
Injury rating, average per plot ([3]; Day 4): 4.5
% desiccation (Day 12), foliage [3]: 92%
% desiccation (Day 12), pods [3]: 90%
% desiccation (Day 12), vines [3]: 70%
Injury rating, average per plot ([3]; Day 12): 4.7

CCCCCCCCC(=O)O [3.375% pelargonic]
Injury ratings based on 2 independent evaluations, 40 G/acre (plants): 43
Injury ratings based on 2 independent evaluations, 60 G/acre (plants): 53.6
Average rating per pot (plants): 4.41

CCCCCCCCC(=O)O [4.5% pelargonic]
Injury ratings based on 2 independent evaluations, 40 G/acre (plants): 45.1
Injury ratings based on 2 independent evaluations, 60 G/acre (plants): 53.9
Average rating per pot (plants): 4.51

CCCCCCCC(=O)O [Caprylic Acid (0.2%)]
Foliage Affected (%) (soybeans [5]): 1.25%
Overall Effect (soybeans [5]): 0.5

CCCCCCCC(=O)O [Caprylic Acid (0.5%)]
Foliage Affected (%) (soybeans [6]): 5%
Overall Effect (soybeans [6]): 1.5
Green Foliage, Foliage Affected (%) (Dry Beans): 10-15%
Yellow Foliage, Foliage Affected (%) (Dry Beans): 70%
Green Foliage, Overall Effect (Dry Beans): 2.5
Yellow Foliage, Overall Effect (Dry Beans): 2
pH Value [7]: 3.55 and 3.30
Foliage Affected (%) (soybeans [5]): 9%
Overall Effect (soybeans [5]): 2.25

O=C(O)CC(O)(CC(=O)O)C(=O)O [Citric Acid (0.5%)]
Green Foliage, Foliage Affected (%) (Dry Beans): 0%
Yellow Foliage, Foliage Affected (%) (Dry Beans): 0%
Green Foliage, Overall Effect (Dry Beans): 0
Yellow Foliage, Overall Effect (Dry Beans): 0
pH Value [7]: 1.64

O=C(O)CC(O)(CC(=O)O)C(=O)O [CitricAcid (0.5%)]
Foliage Affected (%) (soybeans [6]): 0%
Overall Effect (soybeans [6]): 0

C[C@H](O)C(=O)O [L-Lactic Acid (0.5%)]
Foliage Affected (%) (soybeans [6]): 0%
Overall Effect (soybeans [6]): 0
pH Value [7]: 1.93

C[C@H](O)C(=O)O [L-Lactic Acid (1.0%)]
Foliage Affected (%) (soybeans [5]): 1.25%
Overall Effect (soybeans [5]): 0.5

O=C(O)CC(O)C(=O)O [L-Malic Acid (0.5%)]
Foliage Affected (%) (soybeans [6]): 0%
Overall Effect (soybeans [6]): 0
pH Value [7]: 1.69

O=C([O-])c1ccccc1O.[Na+] [Na Salicylate (0.5%)]
Green Foliage, Foliage Affected (%) (Dry Beans): 5-10%
Yellow Foliage, Foliage Affected (%) (Dry Beans): 30%
Green Foliage, Overall Effect (Dry Beans): 2
Yellow Foliage, Overall Effect (Dry Beans): 1

O=C([O-])c1ccccc1O.[Na+] [Na Salicylate (2%)]
Green Foliage, Foliage Affected (%) (Dry Beans): 90%
Yellow Foliage, Foliage Affected (%) (Dry Beans): >90%
Green Foliage, Overall Effect (Dry Beans): 5
Yellow Foliage, Overall Effect (Dry Beans): 5

O=C(O)CCC(=O)O [Succinic Acid (0.5%)]
Foliage Affected (%) (soybeans [6]): 0%
Overall Effect (soybeans [6]): 0
Green Foliage, Foliage Affected (%) (Dry Beans): 0%
Yellow Foliage, Foliage Affected (%) (Dry Beans): 0%
Green Foliage, Overall Effect (Dry Beans): 0
Yellow Foliage, Overall Effect (Dry Beans): 0
pH Value [7]: 1.94

N.N.O=S(=O)(O)O [ammonium sulfate (1.12%), ammonium sulfate]
Relative injury ratings, Day #2 [8]: 0
Relative injury ratings, Day #4 [8]: 0
Relative injury ratings, Day #5 [8]: 0
Average rating per pot [8]: 0

N.N.O=C(O)C(O)C(O)C(=O)O (stereo not drawn) [ammonium tartrate (1.42%), ammonium tartrate]
Relative injury ratings, Day #2 [8]: 0
Relative injury ratings, Day #4 [8]: 0
Relative injury ratings, Day #5 [8]: 0
Average rating per pot [8]: 0

N.N.O=C(O)CCC(=O)O [di-ammonium succinate (1.26%), di-ammonium succinate]
Relative injury ratings, Day #2 [8]: 0
Relative injury ratings, Day #4 [8]: 0
Relative injury ratings, Day #5 [8]: 0
Average rating per pot [8]: 0
